Assay results taken from patent US20090149533A1 (TransForm Pharmaceuticals, Inc., priority 2004, published 2009).
Converted amounts (≈) assume the structure as drawn.

Legend:
[1] = Stability and compatibility of fenofibrate and E463808 (gradient HPLC); format: physicochemical; conditions: 80 or 200 mg/mL in E463808, sealed vial or gelcap, 4 deg C. to 60 deg C., up to 8 weeks
[2] = Equilibrium fenofibrate solubility in ethyl esters versus triglycerides; format: physicochemical; conditions: fenofibrate solubility at 25 degrees C. in the vehicle given as label
[3] = in vivo; cited from earlier work
[4] = Solubility of fenofibrate in E463808-additive mixtures; format: physicochemical; conditions: about 10% v/v additive; 25° C.
Experimental: Equilibrated samples were filtered using 0.2 micrometer PVDF syringe filters and diluted for assay. […] (Tween 85 is also known as polyoxyethylenesorbitan trioleate, Tween 80 is also known as polyoxyethylenesorbitan monooleate, Span 80 is also known as sorbitan monooleate, Span 85 is also known as sorbitan trioleate, and Cremophor EL is also known as polyoxyl castor oil.) Span 80, Span 85, and Tween 85 samples were analyzed using normal-phase HPLC. Cremophor EL, Tween 80, and replicates of Tween 85 samples were analyzed using UV measurements at 285 nm.

Row | Compound | effect of additive on fenofibrate solubility in E463808 [4] | other results
1 | CC(C)OC(=O)C(C)(C)Oc1ccc(C(=O)c2ccc(Cl)cc2)cc1 [Fenofibrate, 2-[4-(4-chlorobenzoyl)phenoxy]-2-methyl-propanoic acid 1-methylethyl ester] | – | degradation of fenofibrate [1]: no degradation was observed
2 | CCCCC/C=C\C/C=C\CCCCCCCC(=O)OCC(COC(=O)CCCCCCC/C=C\C/C=C\CCCCC)OC(=O)CCCCCCC/C=C\C/C=C\CCCCC [Trilinolein] | – | Solubility [2]: 61.2 mg/mL (≈ 69.6 mM)
3 | CC(C)(Oc1ccc(C(=O)c2ccc(Cl)cc2)cc1)C(=O)O [fenofibric acid] | – | elimination half-life [3]: approximately twenty
4 | polyoxyethylenesorbitan monooleate [Tween 80®] | Slight enhancement in fenofibrate solubility | –
5 | polyoxyethylenesorbitan trioleate [Tween 85®] | Slight enhancement in fenofibrate solubility | –
6 | polyoxyl castor oil [Cremophor® EL] | Slight enhancement in fenofibrate solubility | –
